In US20260250290A1 (BRISTOL-MYERS SQUIBB COMPANY, priority 2023, published 2026):
Counter-ions that a name gives are not always drawn.

Biological target: T1, full length SGK1 (Homo sapiens, UniProt O00141)
T1 construct: 125 μM full length SGK1 (Life Technologies Part #PR7358A); purchased Life Technologies PR7358A
T1 sequence (O00141 1-431): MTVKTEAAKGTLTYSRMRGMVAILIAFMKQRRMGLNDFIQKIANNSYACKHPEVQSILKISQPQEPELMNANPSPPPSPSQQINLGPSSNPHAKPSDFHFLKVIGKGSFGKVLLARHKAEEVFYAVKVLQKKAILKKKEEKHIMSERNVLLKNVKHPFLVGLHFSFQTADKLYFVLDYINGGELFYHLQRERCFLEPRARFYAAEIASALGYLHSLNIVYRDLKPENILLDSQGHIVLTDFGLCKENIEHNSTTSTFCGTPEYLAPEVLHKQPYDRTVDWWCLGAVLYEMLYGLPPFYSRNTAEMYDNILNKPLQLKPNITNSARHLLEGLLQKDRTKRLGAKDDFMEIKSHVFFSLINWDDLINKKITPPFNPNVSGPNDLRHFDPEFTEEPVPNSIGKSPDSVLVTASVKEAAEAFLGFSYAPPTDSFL
Test: SGK1 inhibition Assay A (Caliper LabChip electrophoretic separation of fluorescent peptide substrate and phosphorylated product)
Format: biochemical
Conditions: Assay A; 20 μM ATP, 40 min incubation; read-out: SGK1 IC50

Row | IC50 [nM] | Compound
1 | 18 | CC(=O)N1CC=C(c2cc(N3CCC[C@@H](NC(=O)c4sc(C5CC5)cc4OCCN(C)C)C3)c3c(N)ncnn23)C1 [Example 370, (R)—N-(1-(7-(1-acetyl-2,5-dihydro-1H-pyrrol-3-yl)-4-aminopyrrolo[2,1-f][1,2,4]triazin-5-yl)piperidin-3-yl)-5-cyclopropyl-3-(2-(dimethylamino)ethoxy)thiophene-2-carboxamide]
2 | 10 | CN(C)CCOc1cc(Cl)sc1C(=O)N[C@@H]1CCCN(c2cc(-c3ccc4nnnn4c3)n3ncnc(N)c23)C1 [Example 192, (R)-N-(1-(4-amino-7-(tetrazolo[1,5-a]pyridin-6-yl)pyrrolo[2,1-f][1,2,4]triazin-5-yl)piperidin-3-yl)-5-chloro-3-(2-(dimethylamino)ethoxy) thiophene-2-carboxamide]
3 | 112 | CS(=O)(=O)c1ccc(-c2cc(N3CCC[C@@H](NC(=O)c4ccncn4)C3)c3c(N)ncnn23)cc1 [Example 31, (R)-N-(1-(4-amino-7-(4-(methylsulfonyl)phenyl)pyrrolo[2,1-f][1,2,4]triazin-5-yl)piperidin-3-yl)pyrimidine-4-carboxamide]
4 | 0.5 | COc1cc(C(=O)N[C@@H]2CCCN(c3cc(C4=CCN(C(C)=O)C4)n4ncnc(N)c34)C2)sn1 [Example 256, (R)—N-(1-(7-(1-acetyl-2,5-dihydro-1H-pyrrol-3-yl)-4-aminopyrrolo[2,1-f][1,2,4]triazin-5-yl)piperidin-3-yl)-3-methoxyisothiazole-5-carboxamide]
5 | 4 | CN1CCN(CCOc2cc(C(F)F)sc2C(=O)N[C@@H]2CCCN(c3cc(-c4ccnc(C(F)F)c4)n4ncnc(N)c34)C2)CC1 [Example 335, (R)—N-(1-(4-amino-7-(2-(difluoromethyl)pyridin-4-yl)pyrrolo[2,1-f][1,2,4]triazin-5-yl)piperidin-3-yl)-5-(difluoromethyl)-3-(2-(4-methylpiperazin-1-yl)ethoxy)thiophene-2-carboxamide]
6 | 7 | Nc1ncnn2c(-c3ccnc4[nH]ccc34)cc(N3CCC[C@@H](NC(=O)c4ccc(Cl)s4)C3)c12 [Example 205, (R)-N-(1-(4-amino-7-(1H-pyrrolo[2,3-b]pyridin-4-yl)pyrrolo[2,1-f][1,2,4]triazin-5-yl)piperidin-3-yl)-5-chlorothiophene-2-carboxamide, TFA]
7 | 2 | NC(=O)c1ccc(-c2cc(N3CCC[C@@H](NC(=O)c4sc(C(F)F)cc4OC4CCNCC4)C3)c3c(N)ncnn23)cc1F [Example 349, (R)-N-(1-(4-amino-7-(4-carbamoyl-3-fluorophenyl)pyrrolo[2,1-f][1,2,4]triazin-5-yl)piperidin-3-yl)-5-(difluoromethyl)-3-(piperidin-4-yloxy)thiophene-2-carboxamide]
8 | 16 | Nc1ncnn2c(-c3ccnc(C(F)F)c3)cc(N3CCC[C@@H](NC(=O)c4ccc(C5=CCNCC5)s4)C3)c12 [Example 553, (R)-N-(1-(4-amino-7-(2-(difluoromethyl)pyridin-4-yl)pyrrolo[2,1-f][1,2,4]triazin-5-yl)piperidin-3-yl)-5-(1,2,3,6-tetrahydropyridin-4-yl)thiophene-2-carboxamide]
9 | 636 | CC(=O)N1CC=C(c2cc(N3CCC[C@@H](NC(=O)C4=NNC(=O)CC4)C3)c3c(N)ncnn23)C1 [Example 464, (R)-N-(1-(7-(1-acetyl-2,5-dihydro-1H-pyrrol-3-yl)-4-aminopyrrolo[2,1-f][1,2,4]triazin-5-yl)piperidin-3-yl)-6-oxo-1,4,5,6-tetrahydropyridazine-3-carboxamide]
10 | 8 | CC(=O)N1CC=C(c2cc(N3CCCC(NC(=O)c4sc(Cl)cc4OCC4CCNC4)C3)c3c(N)ncnn23)C1 (single isomer, unassigned) [Example 638]
11 | 5 | CC(=O)N1CC=C(c2cc(N3CCC[C@@H](NC(=O)c4ccc(-c5ccnc(C(F)F)c5)s4)C3)c3c(N)ncnn23)C1 [Example 541, (R)—N-(1-(7-(1-acetyl-2,5-dihydro-1H-pyrrol-3-yl)-4-aminopyrrolo[2,1-f][1,2,4]triazin-5-yl)piperidin-3-yl)-5-(2-(difluoromethyl)pyridin-4-yl)thiophene-2-carboxamide]
